Laboratory results as given in publication PMC5218480 (PLoS ONE, 2017).

System: MV-4-11 cells
Assay: Gene expression microarray analysis (Affymetrix PrimeView) and GSEA
Assay type: cell-based, human
Design: RFU PODN (11730768_x_at) / Fold change /veh PODN (11730768_x_at) / RFU LINC00158 (11744669_a_at) / Fold change /veh LINC00158 (11744669_a_at) / RFU DUSP10 (11751237_a_at) / Fold change /veh DUSP10 (11751237_a_at) / RFU ID3 (11757404_x_at) / Fold change /veh ID3 (11757404_x_at) / RFU PLEKHG5 (11737974_s_at) / Fold change /veh PLEKHG5 (11737974_s_at) / RFU LRRC4B (11730491_at) / Fold change /veh LRRC4B (11730491_at) / RFU GIMAP4 (11747438_a_at) / Fold change /veh GIMAP4 (11747438_a_at) / RFU KRT8 (11758183_x_at) / Fold change /veh KRT8 (11758183_x_at) / RFU CNN1 (11734310_a_at) / Fold change /veh CNN1 (11734310_a_at) / RFU VPS37D (11726825_at) / Fold change /veh VPS37D (11726825_at) / RFU C10orf10 (11716522_x_at) / Fold change /veh C10orf10 (11716522_x_at) / RFU KIR2DL2 /// KIR2DL4 /// KIR2DL5A /// KIR2DL5B /// KIR2DS1 /// KIR2DS2 /// KIR2DS3 /// KIR2DS4 /// KIR3DL3 /// KIR3DL3 /// KIR3DS1 (11738374_at) / Fold change /veh KIR2DL2 /// KIR2DL4 /// KIR2DL5A /// KIR2DL5B /// KIR2DS1 /// KIR2DS2 /// KIR2DS3 /// KIR2DS4 /// KIR3DL3 /// KIR3DL3 /// KIR3DS1 (11738374_at) / RFU C1QL1 (11718748_at) / Fold change /veh C1QL1 (11718748_at) / RFU TMPRSS4 (11747572_a_at) / Fold change /veh TMPRSS4 (11747572_a_at) / RFU HAMP (11756126_x_at) / Fold change /veh HAMP (11756126_x_at) / RFU RNFT2 (11725882_a_at) / Fold change /veh RNFT2 (11725882_a_at) / RFU NR4A2 (11747474_a_at) / Fold change /veh NR4A2 (11747474_a_at) / RFU ABCC12 (11746883_a_at) / Fold change /veh ABCC12 (11746883_a_at) / RFU TMEM136 (11760407_x_at) / Fold change /veh TMEM136 (11760407_x_at) / RFU CLDN22 /// WWC2 (11732394_at) / Fold change /veh CLDN22 /// WWC2 (11732394_at) / RFU HLA-DPB1 (11760878_x_at) / Fold change /veh HLA-DPB1 (11760878_x_at) / RFU SPINT1 (11716480_a_at) / Fold change /veh SPINT1 (11716480_a_at) / RFU GAP43 (11754022_s_at) / Fold change /veh GAP43 (11754022_s_at) / RFU A4GNT (11735810_at) / Fold change /veh A4GNT (11735810_at) / RFU PRB3 (11715151_x_at) / Fold change /veh PRB3 (11715151_x_at) / RFU TUBB4B (11761932_at) / Fold change /veh TUBB4B (11761932_at) / RFU CAPN14 (11732068_a_at) / Fold change /veh CAPN14 (11732068_a_at) / RFU TMCC2 (11721928_a_at) / Fold change /veh TMCC2 (11721928_a_at) / RFU IRGQ (11745062_a_at) / Fold change /veh IRGQ (11745062_a_at) / RFU FAM174B (11720279_a_at) / Fold change /veh FAM174B (11720279_a_at) / RFU TMPRSS4 (11748680_a_at) / Fold change /veh TMPRSS4 (11748680_a_at) / RFU FAM212B (11763350_a_at) / Fold change /veh FAM212B (11763350_a_at) / RFU PLEKHG5 (11743358_a_at) / Fold change /veh PLEKHG5 (11743358_a_at) / RFU ZSCAN30 (11745921_a_at) / Fold change /veh ZSCAN30 (11745921_a_at) / RFU CMKLR1 (11741424_a_at) / Fold change /veh CMKLR1 (11741424_a_at) / RFU LOC101060620 /// MAPK8IP1 (11723275_at) / Fold change /veh LOC101060620 /// MAPK8IP1 (11723275_at) / RFU SPTSSB (11747773_x_at) / Fold change /veh SPTSSB (11747773_x_at) / RFU PRSS12 (11739890_at) / Fold change /veh PRSS12 (11739890_at) / RFU BIN1 (11741810_x_at) / Fold change /veh BIN1 (11741810_x_at) / RFU WNT11 (11732464_a_at) / Fold change /veh WNT11 (11732464_a_at) / RFU C10orf10 (11716521_a_at) / Fold change /veh C10orf10 (11716521_a_at) / RFU C5orf56 (11738089_at) / Fold change /veh C5orf56 (11738089_at) / RFU CYB561 (11721691_x_at) / Fold change /veh CYB561 (11721691_x_at) / RFU ANKRD19P (11752326_a_at) / Fold change /veh ANKRD19P (11752326_a_at) / RFU OR2T12 /// OR2T33 /// OR2T8 (11738714_s_at) / Fold change /veh OR2T12 /// OR2T33 /// OR2T8 (11738714_s_at) / RFU VCAN (11748164_a_at) / Fold change /veh VCAN (11748164_a_at) / RFU JSRP1 (11732532_at) / Fold change /veh JSRP1 (11732532_at) / RFU KRTAP10-11 (11738290_x_at) / Fold change /veh KRTAP10-11 (11738290_x_at) / RFU MYO3A (11730013_a_at) / Fold change /veh MYO3A (11730013_a_at) / RFU EBF3 (11725865_a_at) / Fold change /veh EBF3 (11725865_a_at) / RFU CAMK2N1 (11719241_x_at) / Fold change /veh CAMK2N1 (11719241_x_at) / RFU C5orf56 (11738088_a_at) / Fold change /veh C5orf56 (11738088_a_at) / RFU OLFML3 (11715873_a_at) / Fold change /veh OLFML3 (11715873_a_at) / RFU LOC100653217 /// NTM (11731650_a_at) / Fold change /veh LOC100653217 /// NTM (11731650_a_at) / RFU MAPK11 (11762145_a_at) / Fold change /veh MAPK11 (11762145_a_at) / RFU FIZ1 (11724087_x_at) / Fold change /veh FIZ1 (11724087_x_at) / RFU OASL (11726364_x_at) / Fold change /veh OASL (11726364_x_at) / RFU SOX15 (11748057_x_at) / Fold change /veh SOX15 (11748057_x_at) / RFU CD79A (11719716_a_at) / Fold change /veh CD79A (11719716_a_at) / RFU HIST1H1D (11736915_at) / Fold change /veh HIST1H1D (11736915_at) / RFU CASKIN2 (11723855_a_at) / Fold change /veh CASKIN2 (11723855_a_at) / RFU LOC730098 (11760151_x_at) / Fold change /veh LOC730098 (11760151_x_at) / RFU OR4N2 (11742367_at) / Fold change /veh OR4N2 (11742367_at) / RFU PRRT2 (11749266_a_at) / Fold change /veh PRRT2 (11749266_a_at) / RFU SNX32 (11753110_a_at) / Fold change /veh SNX32 (11753110_a_at) / RFU CDHR5 (11726645_a_at) / Fold change /veh CDHR5 (11726645_a_at) / RFU RCAN1 (11760418_a_at) / Fold change /veh RCAN1 (11760418_a_at) / RFU FAM167A (11723789_a_at) / Fold change /veh FAM167A (11723789_a_at) / RFU FAM26E (11764081_at) / Fold change /veh FAM26E (11764081_at) / RFU ISYNA1 (11749810_s_at) / Fold change /veh ISYNA1 (11749810_s_at) / RFU ACY1 (11761880_at) / Fold change /veh ACY1 (11761880_at) / RFU 11764098_at / Fold change /veh 11764098_at / RFU SAMD14 (11745864_x_at) / Fold change /veh SAMD14 (11745864_x_at) / RFU NPB (11741838_a_at) / Fold change /veh NPB (11741838_a_at) / RFU TMPRSS6 (11731388_a_at) / Fold change /veh TMPRSS6 (11731388_a_at) / RFU KRTAP10-2 (11738614_at) / Fold change /veh KRTAP10-2 (11738614_at) / RFU ARHGAP8 /// PRR5-ARHGAP8 (11727945_x_at) / Fold change /veh ARHGAP8 /// PRR5-ARHGAP8 (11727945_x_at) / RFU KRTAP5-7 /// NADSYN1 (11734609_at) / Fold change /veh KRTAP5-7 /// NADSYN1 (11734609_at) / RFU RASL12 (11751679_a_at) / Fold change /veh RASL12 (11751679_a_at) / RFU CDKN2B (11736163_a_at) / Fold change /veh CDKN2B (11736163_a_at) / RFU PRF1 (11729649_at) / Fold change /veh PRF1 (11729649_at) / RFU, ZNF638 /// ZNF638-IT1 / Fold change vs veh, ZNF638 /// ZNF638-IT1 / RFU, PANK3 / Fold change vs veh, PANK3 / RFU, SH3YL1 / Fold change vs veh, SH3YL1 / RFU, ZEB2 / Fold change vs veh, ZEB2 / RFU, NRIP1 / Fold change vs veh, NRIP1 / RFU, PTTG1IP / Fold change vs veh, PTTG1IP / RFU, CAPN2 / Fold change vs veh, CAPN2 / RFU, MED14 / Fold change vs veh, MED14 / RFU, SNORA58 / Fold change vs veh, SNORA58 / RFU, C1orf63 / Fold change vs veh, C1orf63 / RFU, LRRFIP1 / Fold change vs veh, LRRFIP1 / RFU, NDUFAF7 / Fold change vs veh, NDUFAF7 / RFU, SLC12A2 / Fold change vs veh, SLC12A2 / RFU, IBTK / Fold change vs veh, IBTK / RFU, ESF1 / Fold change vs veh, ESF1 / Fold change vs veh, TMEM50B / RFU, TAOK1 / Fold change vs veh, TAOK1 / RFU, ACBD3 / Fold change vs veh, ACBD3 / RFU, TMA16 / Fold change vs veh, TMA16 / RFU, RWDD3 / Fold change vs veh, RWDD3 / RFU, BCAT1 / Fold change vs veh, BCAT1 / RFU, EDEM3 / Fold change vs veh, EDEM3 / RFU, TMEM33 / Fold change vs veh, TMEM33 / RFU, WDR75 / Fold change vs veh, WDR75 / RFU, AHCTF1 / Fold change vs veh, AHCTF1 / RFU, TFRC / Fold change vs veh, TFRC / RFU, ZDHHC17 / Fold change vs veh, ZDHHC17 / RFU, NOM1 / Fold change vs veh, NOM1 / RFU, ARL8B / Fold change vs veh, ARL8B / RFU, ZBTB11 / Fold change vs veh, ZBTB11 / RFU, TAMM41 / Fold change vs veh, TAMM41 / RFU, KIAA1704 /// LOC100996395 / Fold change vs veh, KIAA1704 /// LOC100996395 / RFU, ING1 / Fold change vs veh, ING1 / RFU, TRMT61B / Fold change vs veh, TRMT61B / RFU, FUBP3 / Fold change vs veh, FUBP3 / RFU, TP53 / Fold change vs veh, TP53 / RFU, TNKS2 / Fold change vs veh, TNKS2 / RFU, ZFP14 / Fold change vs veh, ZFP14 / RFU, ACTR2 / Fold change vs veh, ACTR2 / RFU, PPP3R1 / Fold change vs veh, PPP3R1 / RFU, PIK3R1 / Fold change vs veh, PIK3R1 / RFU, HNRNPA1 / Fold change vs veh, HNRNPA1 / RFU, RNF170 / Fold change vs veh, RNF170 / RFU, ZNF28 / Fold change vs veh, ZNF28 / RFU, RNGTT / Fold change vs veh, RNGTT / RFU, OGT / Fold change vs veh, OGT / RFU, BRD1 / Fold change vs veh, BRD1 / RFU, MARS / Fold change vs veh, MARS / RFU, ZNF655 / Fold change vs veh, ZNF655 / RFU, FAHD1 / Fold change vs veh, FAHD1 / RFU, BDP1 / Fold change vs veh, BDP1 / RFU, LRRCC1 / Fold change vs veh, LRRCC1 / RFU, ARID1A / Fold change vs veh, ARID1A / RFU, ZNF146 / Fold change vs veh, ZNF146 / RFU, ZNF330 / Fold change vs veh, ZNF330 / RFU, GPN3 / Fold change vs veh, GPN3 / RFU, C9orf123 / Fold change vs veh, C9orf123 / RFU, N4BP2L2 / Fold change vs veh, N4BP2L2 / RFU, ARFIP1 / Fold change vs veh, ARFIP1 / RFU, FAM179B / Fold change vs veh, FAM179B / RFU, BCL10 / Fold change vs veh, BCL10 / RFU, UHRF1BP1L / Fold change vs veh, UHRF1BP1L / RFU, BET1 / Fold change vs veh, BET1 / RFU, CNOT2 / Fold change vs veh, CNOT2 / RFU, ZNF268 / Fold change vs veh, ZNF268 / Fold change vs veh, ZNF507 / RFU, DGCR2 / Fold change vs veh, DGCR2 / RFU, WDSUB1 / Fold change vs veh, WDSUB1 / Fold change vs veh, HSP90B1 /// MIR3652 / RFU, ADSS / Fold change vs veh, ADSS / RFU, GK / Fold change vs veh, GK / RFU, ZNF148 / Fold change vs veh, ZNF148 / RFU, TAF9 / Fold change vs veh, TAF9 / RFU, SLC1A5 / Fold change vs veh, SLC1A5 / RFU, SLMO2 / Fold change vs veh, SLMO2 / RFU, ABCC4 / Fold change vs veh, ABCC4 / RFU, LOC101060439 /// RAP1B / Fold change vs veh, LOC101060439 /// RAP1B / RFU, RFX7 / Fold change vs veh, RFX7 / RFU, GTPBP10 / Fold change vs veh, GTPBP10 / RFU, CNEP1R1 / Fold change vs veh, CNEP1R1 / RFU, BIVM-ERCC5 /// ERCC5 / Fold change vs veh, BIVM-ERCC5 /// ERCC5 / RFU, ILF3 / Fold change vs veh, ILF3 / RFU 11762660_at / Fold change /veh 11762660_at / RFU VCAN (11757783_s_at) / Fold change /veh VCAN (11757783_s_at) / RFU DDX43 (11728927_at) / Fold change /veh DDX43 (11728927_at) / RFU KRT8 (11758188_x_at) / Fold change /veh KRT8 (11758188_x_at) / RFU NKD1 (11759106_at) / Fold change /veh NKD1 (11759106_at) / RFU SRD5A1 (11742802_a_at) / Fold change /veh SRD5A1 (11742802_a_at) / RFU TPSAB1 /// TPSB2 (11721975_s_at) / Fold change /veh TPSAB1 /// TPSB2 (11721975_s_at) / RFU GSTM3 (11746129_a_at) / Fold change /veh GSTM3 (11746129_a_at) / RFU IL23R (11737362_x_at) / Fold change /veh IL23R (11737362_x_at) / RFU TMEM51 (11727254_a_at) / Fold change /veh TMEM51 (11727254_a_at) / RFU PIWIL2 (11732686_x_at) / Fold change /veh PIWIL2 (11732686_x_at) / RFU ORM1 (11744905_x_at) / Fold change /veh ORM1 (11744905_x_at) / RFU CCDC152 (11743942_at) / Fold change /veh CCDC152 (11743942_at) / RFU ECM1 (11717891_a_at) / Fold change /veh ECM1 (11717891_a_at) / RFU IL23R (11748794_a_at) / Fold change /veh IL23R (11748794_a_at) / RFU TNFAIP8L3 (11732012_x_at) / Fold change /veh TNFAIP8L3 (11732012_x_at) / RFU MBOAT4 (11741988_at) / Fold change /veh MBOAT4 (11741988_at) / RFU 11764193_at / Fold change /veh 11764193_at / RFU TMEM53 (11763286_at) / Fold change /veh TMEM53 (11763286_at) / RFU MAGEB2 (11727129_at) / Fold change /veh MAGEB2 (11727129_at) / RFU TMEM200A (11744735_a_at) / Fold change /veh TMEM200A (11744735_a_at) / RFU CCDC152 (11751479_a_at) / Fold change /veh CCDC152 (11751479_a_at) / RFU FAM211A (11726209_a_at) / Fold change /veh FAM211A (11726209_a_at) / RFU RGS16 (11746705_a_at) / Fold change /veh RGS16 (11746705_a_at) / RFU VCAN (11755009_s_at) / Fold change /veh VCAN (11755009_s_at) / RFU RHOB (11743442_s_at) / Fold change /veh RHOB (11743442_s_at) / RFU RGS16 (11720943_a_at) / Fold change /veh RGS16 (11720943_a_at) / RFU RGS16 (11720944_at) / Fold change /veh RGS16 (11720944_at) / RFU, VPS4B / Fold change vs veh, VPS4B / RFU, CREB1 / Fold change vs veh, CREB1 / RFU, DNAJC13 / Fold change vs veh, DNAJC13 / RFU, GNAQ / Fold change vs veh, GNAQ / RFU, CDK5R1 / Fold change vs veh, CDK5R1 / RFU, ZRANB3 / Fold change vs veh, ZRANB3 / RFU, CUL4A / Fold change vs veh, CUL4A / RFU, CCNY / Fold change vs veh, CCNY / RFU, UFL1 / Fold change vs veh, UFL1 / RFU, COG3 / Fold change vs veh, COG3 / RFU, DIAPH2 / Fold change vs veh, DIAPH2 / RFU, SKA2 / Fold change vs veh, SKA2 / RFU, AFF3 / Fold change vs veh, AFF3 / RFU, LMF1 / Fold change vs veh, LMF1 / RFU, IPO11 / Fold change vs veh, IPO11 / RFU, DFFB / Fold change vs veh, DFFB / RFU, FOXP1 / Fold change vs veh, FOXP1 / RFU, CARD8 / Fold change vs veh, CARD8 / RFU, STRN3 / Fold change vs veh, STRN3 / RFU, ADK / Fold change vs veh, ADK / RFU, RASSF2 / Fold change vs veh, RASSF2 / RFU, WIPF1 / Fold change vs veh, WIPF1 / RFU, LARP1B / Fold change vs veh, LARP1B / RFU, RASA1 / Fold change vs veh, RASA1 / RFU, RB1 / Fold change vs veh, RB1 / RFU, PPFIA1 / Fold change vs veh, PPFIA1 / RFU, MAT2A / Fold change vs veh, MAT2A / RFU, CCT5 / Fold change vs veh, CCT5 / RFU, WDR92 / Fold change vs veh, WDR92 / RFU, CUX1 / Fold change vs veh, CUX1 / RFU, TTC7A / Fold change vs veh, TTC7A / RFU, TMEM135 / Fold change vs veh, TMEM135 / RFU, DEPTOR / Fold change vs veh, DEPTOR / RFU, CPM / Fold change vs veh, CPM / RFU, DNAJB6 / Fold change vs veh, DNAJB6 / RFU, CACNA2D3 / Fold change vs veh, CACNA2D3 / RFU, DTX4 / Fold change vs veh, DTX4 / RFU, TFCP2 / Fold change vs veh, TFCP2 / RFU, GMCL1 /// GMCL1P1 / Fold change vs veh, GMCL1 /// GMCL1P1 / RFU, AEBP2 / Fold change vs veh, AEBP2 / RFU, SNHG1 /// SNORD22 /// SNORD25 /// SNORD26 /// SNORD27 /// SNORD28 /// SNORD29 /// SNORD31 / Fold change vs veh, SNHG1 /// SNORD22 /// SNORD25 /// SNORD26 /// SNORD27 /// SNORD28 /// SNORD29 /// SNORD31 / Fold change (Aza/veh), C12orf56 (ProbeSet 11735607_a_at) / Fold change (ACY-1035/veh), C12orf56 (ProbeSet 11735607_a_at) / Fold change (Aza/veh), FGFR1OP (ProbeSet 11751329_s_at) / Fold change (ACY-1035/veh), FGFR1OP (ProbeSet 11751329_s_at) / Fold change (Aza/veh), VPS36 (ProbeSet 11739960_a_at) / Fold change (ACY-1035/veh), VPS36 (ProbeSet 11739960_a_at) / RFU SYPL1 (11715823_x_at) / Fold change /veh SYPL1 (11715823_x_at) / RFU IGFBP7 (11715501_s_at) / Fold change /veh IGFBP7 (11715501_s_at) / RFU REEP3 (11722064_at) / Fold change /veh REEP3 (11722064_at) / RFU IGLL1 (11728026_x_at) / Fold change /veh IGLL1 (11728026_x_at): dose or concentration left out as unconfirmed
Conditions: MV-4-11 cells, 48 hours

With `Nc1ccc(-c2cccs2)cc1NC(=O)c1ccc2c(c1)cc(C1CC1)n2CCN1CCOCC1` [ACY-1035] the “RFU PODN (11730768_x_at)” value was 25.60 RFU.
